Like-named read-outs stand apart in the source and are kept apart here.
Legend:
[1] = molecular target: IMP-1 (Serratia marcescens, UniProt P52699); experiment: Enzymatic assay for determination of inhibition constants, reporter substrate method, purified IMP-1; type: biochemical; conditions: for Ki: isolated MBL, competitive inhibition model;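 on all read-outs here: purified IMP-1 (1-70 nM) hydrolysing a reporter substrate, initial rates followed as absorbance change at 260, 300 or 482 nm in 50 mM HEPES pH 7.5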
Procedure: (§3) The reaction rate was measured as the variation of absorbance observed upon substrate hydrolysis in a UV-Vis spectrophotometer or microplate reader at a wavelength of 300 nm (imipenem, meropenem), 260 nm (cefotaxime) or 482 nm (nitrocefin) in 50 mM HEPES buffer (pH 7.5) and in the presence of a purified MBL enzyme (such as VIM-1, VIM-2, VIM-4, NDM-1 and IMP-1, at a final concentration ranging 1-70 nM).
(§4) The inhibition constants (Ki) were determined on the basis of a model of competitive inhibition by analyzing the dependence of the ratio v0/vi (v0, hydrolysis velocity in the absence of inhibitor; vi, hydrolysis velocity in the presence of inhibitor) as a function of [I] as already described [Docquier J. D., Lamotte-Brasseur J., Galleni M., Amicosante G., Frère J. M., Rossolini G. M. (2003) J. Antimicrob. […] The slope of the plot of v0/vi vs [I], which corresponds to Km^S/(Km^S+[S])Ki (where Km^S is the Km value of the reporter substrate and [S] its concentration in the reaction mixture) and allowed the calculation of the Ki value. Alternatively, a Dixon plot analysis was carried out, by measuring the initial hydrolysis rates in the presence of variable concentrations of inhibitor and substrate.

[2] = test system: E. coli AS19 [pLBII-VIM2]; experiment: microbe, parasite or virus in culture; type: cell-based, Escherichia coli; conditions: for zone of inhibition at 40 µg/disc: Escherichia coli, read-out: Inhibition zone diameter AS 19, difference between measured diameter and diameter without compound
Procedure: (§1) A] A disk-diffusion test in which the inhibitor was added (40-320 μg) to a disk containing a defined amount of a β-lactam antibiotic (such as 30 μg cefoxitin) was used to evaluate the antimicrobial activity (corresponding to the diameter of the growth inhibition zone, expressed in mm) of the combination when compared of that of the antibiotic alone.
(§2) These tests were performed on isogenic laboratory strains (such as Escherichia coli DH5a or XL-1) producing a defined MBL after its transformation with a pLB-II plasmid derivative (such as pLBII-VIM-2) [Borgianni L., Vandenameele J., Matagne A., Bini L., Bonomo R. A., Frere J. M., Rossolini G. M., Docquier J. D. (2010) Antimicrob. Agents Chemother. 54, 3197-3204] harbouring a cloned gene encoding the functional metallo-β-lactamase. Alternatively, hyperpermeable strains (such as Escherichia coli AS19) were used instead of Escherichia coli DH5α or XL-1.

[3] = molecular target: VIM-4 (Pseudomonas aeruginosa, UniProt Q8KRJ3); experiment: Enzymatic assay for determination of inhibition constants, reporter substrate method, purified VIM-4; type: biochemical; conditions: at 100 μM (maximal tested concentration);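 further: purified VIM-4 (1-70 nM) in 50 mM HEPES pH 7.5, reporter substrate hydrolysis rate tracked by absorbance change (nitrocefin 482 nm, imipenem or meropenem 300 nm, cefotaxime 260 nm)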
Procedure: as §3, §4

[4] = molecular target: VIM-2 (Escherichia coli, UniProt Q5U7L7); experiment: Enzymatic assay for determination of inhibition constants, reporter substrate method, purified VIM-2; type: biochemical;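 further: purified VIM-2 hydrolysing a reporter substrate (imipenem, meropenem, cefotaxime or nitrocefin), reaction rate read as absorbance change, HEPES 50 mM at pH 7.5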
Procedure: as §3, §4

[5] = molecular target: VIM-1 (Pseudomonas aeruginosa, UniProt A0A0F7KYQ8); experiment: Enzymatic assay for determination of inhibition constants, reporter substrate method, purified VIM-1; type: biochemical; conditions: isolated MBL, competitive inhibition model;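 further: initial hydrolysis rates of a reporter β-lactam (imipenem, meropenem, cefotaxime or nitrocefin) followed by absorbance change, purified enzyme at 1–70 nM in 50 mM HEPES pH 7.5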
Procedure: as §3, §4

[6] = molecular target: NDM-1 (Klebsiella pneumoniae, UniProt C7C422); experiment: Enzymatic assay for determination of inhibition constants, reporter substrate method, purified NDM-1; type: biochemical; conditions: isolated MBL, competitive inhibition model;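 further: purified enzyme activity followed as absorbance change from reporter substrate hydrolysis on a UV-Vis spectrophotometer or plate reader, 50 mM HEPES pH 7.5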
Procedure: as §3, §4

[7] = Cell membrane integrity assay, LDH release, compound cytotoxicity; type: cell-based; conditions: human, HeLa cells, 0.001 to 1.2 mM, read-out: IC50, compound concentration inducing 50% cytotoxicity (LDH release)
Procedure: Selected compounds were tested for their ability to induce the lysis of eukaryotic cells by measuring the release of lactate dehydrogenase enzyme (LDH) from HeLa cells, after incubating such cells for 24 hours (37° C., 5% CO2) in Dulbecco's modified Eagle medium supplemented with 10% fetal bovine serum, 4.5 mg/ml glucose and 2 mM L-glutamine in the absence and presence of the compound at concentrations ranging from 0.001 to 1.2 mM. LDH activity was determined using commercial kits (such as the CytoTox 96® Non-Radioactive Cytotoxicity Assay, Promega, Madison, Wis., U.S.A.) in the samples, containing HeLa cells incubated with the various concentrations of the assayed compound or with the solvent or buffer used to resuspend such compounds (vehicle control).
Further controls included samples containing the medium only (medium control) or in which cell lysis was induced by the addition of 9% Triton X-100 (maximum LDH release control). The percentage of cytotoxicity was computed as 100×(Sample LDH release)/(maximum LDH release). The variation of the percentage of cytotoxicity is usually dependent on the compound concentration and allowed to compute an IC50 value, corresponding to the compound concentration inducing 50% cytoxicity.

[8] = test system: K. pneumoniae S1-002 (blaVIM-4+); experiment: Broth microdilution MIC of meropenem in absence and presence of MBL inhibitor, S1-002; type: cell-based; conditions: MBL inhibitor fixed at 32 μg/ml, Mueller-Hinton broth, duplicate
Procedure: (§5) This method was performed in agreement with the CLSI recommendations (document M07-A10, 2015, “Methods for Dilution Antimicrobial Susceptibility Tests for Bacteria That Grow Aerobically”).
(§6) MIC values of meropenem (MEM) were determined in duplicate in Mueller-Hinton broth as recommended by CLSI (document M07-A10, 2015), in absence and presence of a fixed concentration of MBL inhibitor (32 μg/ml).

[9] = test system: K. pneumoniae SI-001 (blaVIM-1+); experiment: Broth microdilution MIC of meropenem in absence and presence of MBL inhibitor, SI-001; type: cell-based; conditions: MBL inhibitor fixed at 32 μg/ml, Mueller-Hinton broth, duplicate
Procedure: as §5, §6

[10] = test system: E. coli LZ2310[pLBII-VIM2] (E. coli K12 ΔnorE ΔmdfA N43 acrA1); type: cell-based, Escherichia coli; conditions: EDTA 220 μg added to cefoxitin disk (30 μg); cefoxitin alone 14 mm
Procedure: as §1, §2

[11] = as listed in Table 2, read-out: Ki on VIM-2
[12] = isolated MBL, competitive inhibition model, read-out: Ki VIM-2

Chain of IMP-1 (P52699 19-246, looked up, species assumed): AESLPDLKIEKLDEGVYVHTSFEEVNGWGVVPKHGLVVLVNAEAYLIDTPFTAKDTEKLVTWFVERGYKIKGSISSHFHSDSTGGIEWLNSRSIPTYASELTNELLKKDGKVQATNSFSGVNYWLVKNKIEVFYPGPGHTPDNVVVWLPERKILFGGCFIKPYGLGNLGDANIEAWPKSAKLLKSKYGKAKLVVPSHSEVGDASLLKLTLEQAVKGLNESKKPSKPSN
Chain of NDM-1 (C7C422 29-270, looked up, species assumed): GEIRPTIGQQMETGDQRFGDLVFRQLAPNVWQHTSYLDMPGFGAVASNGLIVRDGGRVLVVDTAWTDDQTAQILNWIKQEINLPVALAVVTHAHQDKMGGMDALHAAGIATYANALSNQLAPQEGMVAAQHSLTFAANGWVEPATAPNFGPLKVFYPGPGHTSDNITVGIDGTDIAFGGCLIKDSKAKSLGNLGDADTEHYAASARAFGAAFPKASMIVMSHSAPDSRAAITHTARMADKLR

MIC potentiation of meropenem (x.log2 dilutions), K. pneumoniae S1-002 (blaVIM-4+) [8] [log2 dilutions]	MIC potentiation of meropenem (x.log2 dilutions), K. pneumoniae SI-001 (blaVIM-1+) [9] [log2 dilutions]	Compound	Ki [1] [µM]	zone of inhibition at 40 µg/disc [2] [mm]	melting point [°C]	% inhibition VIM-4 [3] [% at 100 μM]	Ki [4, 11] [µM]	Ki [4, 12] [µM]	Ki [5] [µM]	Ki [6] [µM]	IC50 at 24 h [7] [µM]	% inhibition IMP-1 ([1]; at 200 μM (maximal tested concentration)) [% at 200 μM]	Inhibition zone diameter AS 19 ([2]; EDTA 220 μg added to cefoxitin disk (30 μg), cefoxitin alone 16 mm) [mm]	Inhibition zone diameter LZ 2310 [10] [mm]
		COc1ccc(O)c(-c2n[nH]c(=S)n2CCc2ccccc2C(=O)O)c1 [Compound 4, 2-{2-[3-(2-hydroxy-5-methoxyphenyl)-5-sulfanylidene-4,5-dihydro-1H-1,2,4-triazol-4-yl]ethyl}benzoic acid]	> 100	4	88 to 89	80	< 1	< 1	> 100	> 100				
		O=C(O)c1ccccc1CCn1c(-c2ccco2)n[nH]c1=S [Compound 12, 2-{2-[3-(furan-2-yl)-5-sulfanylidene-4,5-dihydro-1H-1,2,4-triazol-4-yl]ethyl}benzoic acid]	> 100	3	210 to 211	70	< 1	< 1		> 100	> 1200			
		O=C(O)c1ccccc1CCn1c(-c2cccs2)n[nH]c1=S [Compound 13, 2-{2-[3-(thiophen-2-yl)-5-sulfanylidene-4,5-dihydro-1H-1,2,4-triazol-4-yl]ethyl}benzoic acid]	> 100	4	195 to 196		1 to 10	1 to 10	> 100	> 100	> 1200			
		Cc1ccccc1-c1n[nH]c(=S)n1CCc1ccccc1C(=O)O [Compound 14, 2-{2-[3-(2-methylphenyl)-5-sulfanylidene-4,5-dihydro-1H-1,2,4-triazol-4-yl]ethyl}benzoic acid]	> 100	3	180 to 181	80	< 1	< 1	1 to 10	> 100	> 1200			
		O=C(O)CCCCn1c(-c2ccccc2)n[nH]c1=S [Compound 15, 5-(3-phenyl-5-sulfanylidene-4,5-dihydro-1H-1,2,4-triazol-4-yl)pentanoic acid]		3	176 to 177	85	1 to 10	1 to 10	> 100	> 100		60		
2	3	S=c1[nH]nc(-c2ccccc2)n1CCSCc1ccccc1 [Compound 33, 4-[2-(benzylsulfanyl)ethyl]-3-phenyl-4,5-dihydro-1H-1,2,4-triazole-5-thione]	> 100		108 to 109			1 to 10	< 1	1 to 10				
		O=C(O)CN(CCN(CC(=O)O)CC(=O)O)CC(=O)O [EDTA, reference compound]											26	30

— patent publication US20220000841A1, “INHIBITORS OF METALLO-BETA-LACTAMASES” (CENTRE NATIONAL DE LA RECHERCHE SCIENTIFIQUE, priority 2018, published 2022)
